Values joined by “and” are separate entries in the source; they are usually repeats but may differ in a detail not shown here. Identical values can stand only once. Like-named read-outs stand apart in the source and are kept apart here.
Experiments:
[1] = system: BaF3 cells expressing FLT3ITD; experiment: BaF3 proliferation, colorimetric WST-1 assay; type: cell-based, murine; conditions: for proliferation, colorimetric assay: BaF3/FLT3 ITD, 48 hours, replicates; for IC50: Mus musculus
[2] = system: BaF3 cells expressing FLT3ITD-D835Y; experiment: BaF3 proliferation, colorimetric WST-1 assay; conditions: for proliferation, colorimetric assay: BaF3/FLT3 ITD-D835Y, 48 hours, replicates; for IC50: Mus musculus, BaF3, read-out: IC50, growth inhibition
[3] = system: BaF3 cells transduced with Flt3ITD/ITD, with IL3; experiment: BaF3 Flt3ITD/ITD proliferation in the presence of IL3 (Supplementary Figure 3A); conditions: replicates
[4] = concentration 0.08 (unit not given), listed as Midostuarin
[5] = concentration 0.4 (unit not given), listed as Midostuarin
[6] = concentration 2 (unit not given), listed as Midostuarin
[7] = concentration 10 (unit not given), listed as Midostuarin
[8] = concentration 50 (unit not given), listed as Midostuarin
[9] = concentration 250 (unit not given), listed as Midostuarin
[10] = concentration 0.016 (unit not given)
[11] = concentration 1000 (unit not given), listed as Midostuarin
[12] = concentration 0.4 (unit not given)
[13] = concentration 0.08 (unit not given)
[14] = concentration 2 (unit not given)
[15] = concentration 10 (unit not given)
[16] = concentration 50 (unit not given)
[17] = concentration 250 (unit not given)
[18] = concentration 1000 (unit not given)
[19] = concentration 5000 (unit not given)

SMILES	proliferation, colorimetric assay [2, 10]	Supplementary Figure 3A - BaF3-ITD+IL3 proliferation [3, 10]	Supplementary Figure 3A - BaF3-ITD+IL3 proliferation [3, 12]	proliferation, colorimetric assay [1, 10]	proliferation, colorimetric assay [1, 13]	proliferation, colorimetric assay [1, 12]	proliferation, colorimetric assay [1, 14]	proliferation, colorimetric assay [1, 15]	proliferation, colorimetric assay [1, 16]	proliferation, colorimetric assay [1, 17]	proliferation, colorimetric assay [2, 13]	proliferation, colorimetric assay [2, 12]	proliferation, colorimetric assay [2, 14]	proliferation, colorimetric assay [2, 15]	proliferation, colorimetric assay [2, 16]	proliferation, colorimetric assay [2, 17]	proliferation, colorimetric assay [2, 18]	IC50 [2] [nM]	Supplementary Figure 3A - BaF3-ITD+IL3 proliferation [3, 13]	Supplementary Figure 3A - BaF3-ITD+IL3 proliferation [3, 14]	also measured
CO[C@@H]1[C@H](N(C)C(=O)c2ccccc2)C[C@H]2O[C@]1(C)n1c3ccccc3c3c4c(c5c6ccccc6n2c5c31)C(=O)NC4 [Midostaurin]	103.305	91.5686	100.9																		proliferation, colorimetric assay ([1]; concentration 0.016 (unit not given), listed as Midostuarin): 100.822 and 110.628 and 104.388; proliferation, colorimetric assay [1, 4]: 99.3158 and 113.294 and 110.094 and 38.1922; proliferation, colorimetric assay [1, 5]: 103.096 and 110.499 and 104.386 and 61.929; proliferation, colorimetric assay [1, 6]: 104.186 and 115.142 and 102.467 and 142.341; proliferation, colorimetric assay [1, 7]: 37.6324 and 34.6342 and 45.0183 and 96.6129; proliferation, colorimetric assay [1, 8]: 6.377 and 12.3055 and 3.243 and 9.898; proliferation, colorimetric assay [1, 9]: 0.5457 and 1.807 and -0.6585 and 0.387; proliferation, colorimetric assay [2, 4]: 108.476 and 93.9081; proliferation, colorimetric assay [2, 5]: 108.102 and 98.6805 and 100.719; proliferation, colorimetric assay [2, 6]: 111.763 and 100.839 and 106.043; proliferation, colorimetric assay [2, 7]: 46.6696 and 71.6598 and 33.3064; proliferation, colorimetric assay [2, 8]: 14.4574 and 14.3192 and 6.786; proliferation, colorimetric assay [2, 9]: 11.4376 and 9.499 and 3.744; proliferation, colorimetric assay [2, 11]: 3.105 and 1.155; Supplementary Figure 3A - BaF3-ITD+IL3 proliferation [3, 6]: 105.72 and 98.3726 and 124.683; Supplementary Figure 3A - BaF3-ITD+IL3 proliferation [3, 7]: 110.807 and 113.1 and 132.819; Supplementary Figure 3A - BaF3-ITD+IL3 proliferation [3, 8]: 106.186 and 111.038 and 133.216; Supplementary Figure 3A - BaF3-ITD+IL3 proliferation [3, 9]: 110.669 and 139.596; Supplementary Figure 3A - BaF3-ITD+IL3 proliferation [3, 11]: 9.826 and 146.156; Supplementary Figure 3A - BaF3-ITD+IL3 proliferation ([3]; concentration 5000 (unit not given), listed as Midostuarin): 3.94 and -0.5106
Cc1ccc(C(=O)Nc2ccc(CN3CCN(C)CC3)c(C(F)(F)F)c2)cc1C#Cc1cnc2cccnn12 [Ponatinib]	105.632	100.2	94.562	103.303 and 29.4843 and 104.802 and 107.771	103.551 and 112.425 and 114.204	63.9851 and 109.481 and 101.917	12.349 and 96.4027 and 63.939 and 105.862	7.628 and 22.9278 and 11.2521 and 38.4511	2.92 and 5.376 and 0.7258 and 6.47	5.173 and 2.723 and -0.4582 and 0.3438	110.397 and 108.415 and 100.457	112.735 and 103.362 and 108.642	92.8711 and 101.44 and 100.79	111.954 and 107.659	78.5183 and 101.652 and 95.7414	19.3842 and 49.6264 and 16.1584	2.173 and 0.6094	162	100.413	103.021 and 110.146 and 131.879	IC50 ([1]; BaF3, read-out: IC50, growth inhibition): 2.54 nM; Supplementary Figure 3A - BaF3-ITD+IL3 proliferation [3, 15]: 104.504 and 106.518 and 133.143; Supplementary Figure 3A - BaF3-ITD+IL3 proliferation [3, 16]: 106.029 and 102.109 and 134.35; Supplementary Figure 3A - BaF3-ITD+IL3 proliferation [3, 17]: 109.055 and 106.007 and 134.452; Supplementary Figure 3A - BaF3-ITD+IL3 proliferation [3, 18]: 75.4094 and 10.3894; Supplementary Figure 3A - BaF3-ITD+IL3 proliferation [3, 19]: 0.9902 and -0.5808
CNC(=O)c1cc(Oc2ccc(NC(=O)Nc3ccc(Cl)c(C(F)(F)F)c3)cc2)ccn1 [Sorafenib]	94.7245	102.183	106.455	16.3815 and 107.167 and 106.617 and 105.393	11.5881 and 112.929 and 104.573 and 131.213	10.6541 and 113.594 and 9.4402 and 110.22	98.6784 and 107.329 and 5.2213 and 125.689	18.373 and 31.6289 and 5.419 and 106.507	7.163 and 11.5817 and 3.098 and 23.7431	5.383 and 5.798 and 3.082 and 8.355	78.2586 and 100.59 and 93.5618	71.3463 and 101.258 and 87.9764	114.498 and 101.128 and 64.2837	112.637 and 109.063 and 80.4355	116.564 and 100.156 and 98.1229	119.18 and 103.897 and 90.2769	83.0213 and 52.2833	1100	99.8176	107.595 and 105.229 and 115.278	IC50 ([1]; BaF3 FLT3ITD, read-out: IC50, growth inhibition): 0.9 nM; Supplementary Figure 3A - BaF3-ITD+IL3 proliferation [3, 15]: 111.02 and 105.412 and 136.419; Supplementary Figure 3A - BaF3-ITD+IL3 proliferation [3, 16]: 101.081 and 115.196 and 123.039; Supplementary Figure 3A - BaF3-ITD+IL3 proliferation [3, 17]: 102.541 and 117.007 and 139.808; Supplementary Figure 3A - BaF3-ITD+IL3 proliferation [3, 18]: 122.84 and 135.916; Supplementary Figure 3A - BaF3-ITD+IL3 proliferation [3, 19]: 77.5171 and 4.823

From PMC11178545, “Alkynyl nicotinamides show antileukemic activity in drug-resistant acute myeloid leukemia” (The Journal of Clinical Investigation, 2024)
